Test results reported in publication PMC2783175 (Archives of biochemistry and biophysics, 2009).

Target: T1, Cystathionine β-synthase (CBS) (Homo sapiens, UniProt P35520)
T1 sequence (P35520 1-408): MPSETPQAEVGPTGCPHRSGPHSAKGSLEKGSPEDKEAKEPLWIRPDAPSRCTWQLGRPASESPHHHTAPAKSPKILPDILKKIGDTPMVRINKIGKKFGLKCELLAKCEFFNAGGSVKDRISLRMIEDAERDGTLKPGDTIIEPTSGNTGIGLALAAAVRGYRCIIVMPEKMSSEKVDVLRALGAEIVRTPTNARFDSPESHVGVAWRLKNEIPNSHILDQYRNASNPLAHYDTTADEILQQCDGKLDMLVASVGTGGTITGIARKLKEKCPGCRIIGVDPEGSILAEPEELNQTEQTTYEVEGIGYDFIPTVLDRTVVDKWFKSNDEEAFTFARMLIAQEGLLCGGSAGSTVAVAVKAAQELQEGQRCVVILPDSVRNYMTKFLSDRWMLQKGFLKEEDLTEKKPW
Experiment: Loss of purified enzyme activity
Format: biochemical

IC50: ~150 µM
SMILES: O=NOO [peroxynitrite, oxoperoxonitrate(1-)]
